The values that follow come from article PMC4224572, “Peptidomimetic inhibitors of N-myristoyltransferase from human malaria and leishmaniasis parasites” (Organic & Biomolecular Chemistry, 2014).

By pKa is commonly meant the pH at which an ionisable group is half protonated. By IC50 is commonly meant the midpoint of a concentration-inhibition curve. As usually defined, the Km is the substrate concentration at which the rate is half of its maximum.

On the set-up of series [1]: method as in earlier work. The conditions noted are these: cited from earlier work.
Series [2] deals with T1, PvNMT (Plasmodium vivax, UniProt A5K1A2).
T1 sequence (A5K1A2 1-410): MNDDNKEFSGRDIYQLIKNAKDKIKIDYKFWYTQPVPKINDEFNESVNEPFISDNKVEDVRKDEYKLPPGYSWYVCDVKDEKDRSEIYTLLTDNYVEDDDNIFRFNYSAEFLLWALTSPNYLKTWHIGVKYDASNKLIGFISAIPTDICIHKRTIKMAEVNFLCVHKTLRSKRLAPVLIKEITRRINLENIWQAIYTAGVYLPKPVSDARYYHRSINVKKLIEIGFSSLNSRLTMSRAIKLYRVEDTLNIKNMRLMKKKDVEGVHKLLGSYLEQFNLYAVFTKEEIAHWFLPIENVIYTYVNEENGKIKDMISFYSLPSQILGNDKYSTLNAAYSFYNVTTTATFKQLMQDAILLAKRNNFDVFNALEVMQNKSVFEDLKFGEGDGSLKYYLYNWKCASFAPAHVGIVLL
Briefly: Kinetic assay and Lineweaver-Burk plot, competitiveness of compound 10. Type of series: biochemical. The method, then: Unexpectedly, the electron maps indicated a mixture of ligand structures such that ∼20% of the electron density represents a N-myristoylated 10 product complex with the CoA by-product in LmNMT (Fig. 2D). This is the only structural evidence for a product complex in any N-myristoyltransferase, and captures and supports the proposed mechanism of action of NMT just prior to regeneration of the active enzyme. Kinetic experiments were performed to study 10 both as a potential substrate and as an NMT inhibitor. […] The N-myristoylation of 10 observed above therefore presumably occurs within the crystal where all reagents are present at high effective concentrations, and turnover is blocked by limited egress of products. […]
3. Kinetic studies of Compound 10. […]
1 / [Sub s tr ate] Rate / [Su b s tr ate]
No inhibitor 0.6 μM 1.2 μM 2.4 μM
Figure S3: Kinetic assay and Lineweaver-Burk plot studying the competitiveness of
(§1) [Substrate] (µM) [S b[Substrate] (µM) tt ]

Series [3] has as its target T1, PvNMT. Kind of series: Fluorogenic NMT inhibition assay, PvNMT. Type of series: biochemical. The conditions noted are these: recombinant enzyme; mean of duplicate or triplicate experiments. The text has this:
(§2) 2-Methylimidazolyl analogues were synthesized building on the hypothesis that 2-methylimidazole (pK a ∼ 7.9)[18] is a reasonable mimetic for N-terminal Gly in the peptide substrate (pK a ∼ 8.0).[19] To cover a range of basicity, imidazolyl (pK a ∼ 7.0) and amine analogues (pK a ∼ 10.0) were also synthesized, each exploring a range of chain lengths (n) (Table 1). To probe versatility at the C-terminus, primary amides, carboxylic acids, 2-cyclohexylethyl and 2-(1-cyclohexenyl)ethyl amides were incorporated. Using a previously reported fluorogenic assay,[20] inhibitors were tested against the parasitic enzymes and HsNMT1 in order to explore their selectivity against a relevant host enzyme. […] Further reduction of the chain length (11 and 12, n = 8 and 7, respectively) led to loss of detectable activity against Plasmodium NMTs and significant loss of activity against LdNMT and HsNMT1.

The subject of a further series is LdNMT. Briefly: Fluorogenic NMT inhibition assay, LdNMT. Type of series: biochemical, L. donovani.
Excerpt: as §2

Another series deals with T2, PfNMT (Plasmodium falciparum, UniProt Q9U419).
T2 sequence (Q9U419 1-410): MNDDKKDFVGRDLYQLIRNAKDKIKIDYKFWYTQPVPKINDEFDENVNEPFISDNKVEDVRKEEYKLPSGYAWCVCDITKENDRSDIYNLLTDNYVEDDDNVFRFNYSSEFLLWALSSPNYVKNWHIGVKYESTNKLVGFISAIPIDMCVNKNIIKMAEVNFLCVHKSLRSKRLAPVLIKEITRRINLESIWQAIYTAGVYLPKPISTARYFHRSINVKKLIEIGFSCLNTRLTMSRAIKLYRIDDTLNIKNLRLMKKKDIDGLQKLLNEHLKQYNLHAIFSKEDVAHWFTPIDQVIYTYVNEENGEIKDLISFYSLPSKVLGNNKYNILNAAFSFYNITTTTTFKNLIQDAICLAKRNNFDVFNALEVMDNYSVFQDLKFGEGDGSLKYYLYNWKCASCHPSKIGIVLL
Kind of series: Fluorogenic NMT inhibition assay, PfNMT. Type of series: biochemical. The conditions noted are these: recombinant enzyme; mean of duplicate or triplicate experiments.
Excerpt: as §2

A further series relates to Leishmania NMT. Briefly: Substrate characteristics in Leishmania NMT. Type of series: biochemical. The method, then:
Unexpectedly, the electron maps indicated a mixture of ligand structures such that ∼20% of the electron density represents a N-myristoylated 10 product complex with the CoA by-product in LmNMT (Fig. 2D). This is the only structural evidence for a product complex in any N-myristoyltransferase, and captures and supports the proposed mechanism of action of NMT just prior to regeneration of the active enzyme. Kinetic experiments were performed to study 10 both as a potential substrate and as an NMT inhibitor. […] The N-myristoylation of 10 observed above therefore presumably occurs within the crystal where all reagents are present at high effective concentrations, and turnover is blocked by limited egress of products.
To probe the degree to which 10 acts as a true peptidomimetic, we investigated the potential to switch from inhibitor to a peptidomimetic substrate. […] In native NMT substrates, N-terminal Gly is preferred to the exclusion of all other residues, with relatively non-sterically demanding residues such as alanine. […]
as §1
Hs pp60src(2-9) Compound 10 Compound 27 Compound 28
Figure S4: Substrate characteristics of H. sapiens p60src(2-16), compound 10 and modified
inhibitors 27 and 28 in Leishmania NMT.

For the next series, the target named is T3, HsNMT1 (Homo sapiens, UniProt P30419).
T3 sequence (P30419 1-496): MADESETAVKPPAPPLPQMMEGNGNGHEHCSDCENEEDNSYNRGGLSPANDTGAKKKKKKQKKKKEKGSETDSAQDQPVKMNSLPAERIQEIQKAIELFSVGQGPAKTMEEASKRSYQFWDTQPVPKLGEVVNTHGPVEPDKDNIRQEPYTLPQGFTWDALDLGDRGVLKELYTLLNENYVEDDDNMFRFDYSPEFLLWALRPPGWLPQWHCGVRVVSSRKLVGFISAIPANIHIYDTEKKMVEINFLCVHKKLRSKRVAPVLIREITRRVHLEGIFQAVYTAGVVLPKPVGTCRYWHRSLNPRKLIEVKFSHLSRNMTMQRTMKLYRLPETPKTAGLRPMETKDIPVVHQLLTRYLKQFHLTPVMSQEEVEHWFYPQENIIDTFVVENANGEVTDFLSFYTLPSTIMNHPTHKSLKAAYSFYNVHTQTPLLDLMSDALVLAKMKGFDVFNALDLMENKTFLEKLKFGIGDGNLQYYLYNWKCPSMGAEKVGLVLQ
Briefly: Fluorogenic NMT inhibition assay, HsNMT1. In kind it is biochemical, H. sapiens. The conditions noted are these: mean of duplicate or triplicate experiments. From the text: 2-Methylimidazolyl analogues were synthesized building on the hypothesis that 2-methylimidazole (pK a ∼ 7.9)[18] is a reasonable mimetic for N-terminal Gly in the peptide substrate (pK a ∼ 8.0).[19] To cover a range of basicity, imidazolyl (pK a ∼ 7.0) and amine analogues (pK a ∼ 10.0) were also synthesized, each exploring a range of chain lengths (n) (Table 1). To probe versatility at the C-terminus, primary amides, carboxylic acids, 2-cyclohexylethyl and 2-(1-cyclohexenyl)ethyl amides were incorporated. Using a previously reported fluorogenic assay,[20] inhibitors were tested against the parasitic enzymes and HsNMT1 in order to explore their selectivity against a relevant host enzyme.

A further series relates to CaNMT. On the set-up: method as in PMID 7783114. The note with it: read-out: KM as CaNMT substrate; cited from earlier work.

Ends that are not written are not given here. A value given as a limit tells only on which side of the number the result lay.

Take `Cc1ncc[nH]1` [2-methylimidazole]: in series [1], the pKa is around 7.9.

As to `NCCCCCCCCCC(=O)N[C@@H](CO)C(=O)N[C@@H](CCCCN)C(=O)NCCC1CCCCC1` [Compound 10], the “Vmax of substrate in presence of inhibitor” value on PvNMT [2] (0.6 μM compound 10) was 20701.0 ± 1047.4; at PvNMT [2] (1.2 μM compound 10), 19563.0 ± 1520.6; on PvNMT [2] (2.4 μM compound 10) it was 21120.3 ± 1651.4. Besides, the mode of inhibition entry at PvNMT [2] (kinetic studies, Fig. S3) is “peptide-competitive inhibitor”. Moreover, the IC50 came to 680 ± 80 nM at PvNMT [3]; 24 ± 3 nM with LdNMT (recombinant enzyme, mean of duplicate or triplicate experiments); 24300 ± 3400 nM at PfNMT; 60 ± 3 nM against HsNMT1. Further, in the series on LdNMT (relative to compound 2), the “potency against LdNMT, fold higher than 2 (1H-imidazol-1-yl)” value is recorded as “over 400 fold”. Moreover, the “potency against LdNMT, fold higher than 6 (2-methyl-1H-imidazol-1-yl)” value in the series with LdNMT (relative to compound 6) is recorded as above 20 fold. For the same molecule, the KM as substrate result with Leishmania NMT (Leishmania NMT) is “Not measurable”. For the same molecule, the Vmax as substrate result in the series with Leishmania NMT (Leishmania NMT) is “Not measurable”. The substrate activity entry in the series with Leishmania NMT (compound 10 tested up to 40 μM) was “no substrate characteristics were detected”.

Turning to “GLYASKLS-NH2 [CaNMT octapeptide substrate]”, the Km in the series on CaNMT is 0.6 µM.
